Assay results as given in ChEMBL document CHEMBL1132983, “Doubly homologated dihalovinyl and acetylene analogues of adenosine: synthesis, interaction with S-adenosyl-L-homocysteine hydrolase, and antiviral and cytostatic effects” (J Med Chem, 2000).

Key:
[1] = molecular target: Adenosylhomocysteinase (Homo sapiens) (UniProt P23526); assay: Compound was evaluated for inhibition of human placental AdoHcy hydrolase at a concentration of 1.0 uM
[2] = molecular target: Adenosylhomocysteinase (Homo sapiens) (UniProt P23526); assay: Compound was evaluated for inhibition of human placental AdoHcy hydrolase at a concentration of 100 uM
[3] = molecular target: Adenosylhomocysteinase (Homo sapiens) (UniProt P23526); assay: Compound was evaluated for inhibition of human placental AdoHcy hydrolase at a concentration of 10 uM
[4] = molecular target: Adenosylhomocysteinase (Homo sapiens) (UniProt P23526); assay: Compound was evaluated for inhibition of human placental AdoHcy hydrolase at a concentration of 50 uM
[5] = molecular target: Adenosylhomocysteinase (Homo sapiens) (UniProt P23526); assay: Compound was evaluated for inhibition of human placental AdoHcy hydrolase at a concentration of 0.1 uM

Chain of Adenosylhomocysteinase (Homo sapiens) (P23526 2-432 limits assumed): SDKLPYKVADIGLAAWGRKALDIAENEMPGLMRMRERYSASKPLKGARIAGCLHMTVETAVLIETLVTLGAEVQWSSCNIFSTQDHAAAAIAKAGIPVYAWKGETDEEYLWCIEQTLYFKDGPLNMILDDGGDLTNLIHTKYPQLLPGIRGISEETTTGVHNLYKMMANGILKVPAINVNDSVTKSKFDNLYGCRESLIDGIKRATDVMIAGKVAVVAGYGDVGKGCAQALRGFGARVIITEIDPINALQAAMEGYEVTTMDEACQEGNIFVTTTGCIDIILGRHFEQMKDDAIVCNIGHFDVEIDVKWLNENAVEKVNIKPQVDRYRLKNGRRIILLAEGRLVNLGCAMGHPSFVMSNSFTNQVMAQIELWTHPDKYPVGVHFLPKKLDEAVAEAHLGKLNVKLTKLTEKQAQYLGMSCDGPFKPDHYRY

Enzyme activity [1]	Enzyme activity [2]	Enzyme activity [3]	Enzyme activity [4]	Enzyme activity [5]	Compound
73.4%	8%	38.9%	14.3%	98.3%	C#CC[C@H]1OC(n2cnc3c(N)ncnc32)[C@H](O)[C@@H]1O (stereo not given in full)
87.4%	5.8%	37.4%	9.7%	90.6%	Nc1ncnc2c1ncn2C1O[C@H](C/C=C(/F)Br)[C@@H](O)[C@H]1O (stereo not given in full)
48.5%	4%	17.1%	5%	87.5%	Nc1ncnc2c1ncn2C1O[C@H](CC=C(Br)Br)[C@@H](O)[C@H]1O (stereo not given in full)
